According to the supplement of paper PMC10307832:

Assays:
Assay in all cases: relative viability (nuclei count vs DMSO), 5 days (fraction); higher = more cells survive
NCI-H2009 = tested on: NCI-H2009
In short: (§1)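 Each reported value is a median over duplicate plates. It expresses relative viability: treated-well nuclei count divided by vehicle-well nuclei count. Lung cancer cell lines in 1536-well plates were dosed by pin tool a day after seeding, alone with one drug or with a fixed anchor-drug dose plus five library-drug doses (not always all listed) in √10 steps, and nuclei were counted after 5 days.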

NCI-H2023 = tested on: NCI-H2023
In short: as §1

HARA = tested on: HARA
In short: as §1

NCI-H650 = tested on: NCI-H650
In short: as §1

H3255 = tested on: H3255
In short: as §1

LOU-NH91 = tested on: LOU-NH91
In short: as §1

NCI-H1650 = tested on: NCI-H1650
In short: as §1

NCI-H838 = tested on: NCI-H838
In short: as §1

NCI-H2087 = tested on: NCI-H2087
In short: as §1

NCI-H1651 = tested on: NCI-H1651
In short: as §1

EPLC-272H = tested on: EPLC-272H
In short: as §1

SW 1573 = tested on: SW 1573
In short: as §1

NCI-H1975 = tested on: NCI-H1975
In short: as §1

NCI-H2085 = tested on: NCI-H2085
In short: as §1

NCI-H727 = tested on: NCI-H727
In short: as §1

LC-2-ad = tested on: LC-2-ad
In short: as §1

NCI-H2228 = tested on: NCI-H2228
In short: as §1

NCI-H2170 = tested on: NCI-H2170
In short: as §1

UMC-11 = tested on: UMC-11
In short: as §1

PC-3 [JPC-3] = tested on: PC-3 [JPC-3]
In short: as §1

NCI-H23 = tested on: NCI-H23
In short: as §1

Question: How did the relative viability (NCI-H2009; first compound 0.253 µM) turn out when Nc1cccc2c1CN(C1CCC(=O)NC1=O)C2=O (stereo unspecified) [Lenalidomide] + CS(=O)(=O)CCNCc1ccc(-c2ccc3ncnc(Nc4ccc(OCc5cccc(F)c5)c(Cl)c4)c3c2)o1 [Lapatinib] (partner 2 µM) was run?
Answer: 0.919

Question: And the relative viability (NCI-H2009; first compound 0.8 µM)?
Answer: 0.947

Question: What about the relative viability (NCI-H2009; first compound 2.53 µM) of the same molecule?
Answer: 1.25

Question: And the relative viability (NCI-H2009; first compound 8 µM)?
Answer: 1.25

Question: What about the relative viability (NCI-H2023; first compound 0.253 µM) of the same molecule?
Answer: 0.74

Question: What about the relative viability (NCI-H2023; first compound 0.8 µM) of the same molecule?
Answer: 0.859

Question: And the relative viability (NCI-H2023; first compound 2.53 µM)?
Answer: 0.838

Question: What about the relative viability (NCI-H2023; first compound 8 µM) of the same molecule?
Answer: 0.568

Question: What about the relative viability (HARA; first compound 0.253 µM) of the same molecule?
Answer: 0.775

Question: What about the relative viability (HARA; first compound 0.8 µM) of the same molecule?
Answer: 0.653

Question: What about the relative viability (HARA; first compound 2.53 µM) of the same molecule?
Answer: 0.8

Question: What about the relative viability (HARA; first compound 8 µM) of the same molecule?
Answer: 0.571

Question: And the relative viability (NCI-H650; first compound 0.253 µM)?
Answer: 1.04

Question: And the relative viability (NCI-H650; first compound 2.53 µM)?
Answer: 1.01

Question: And the relative viability (NCI-H650; first compound 8 µM)?
Answer: 0.804

Question: And the relative viability (H3255; first compound 0.253 µM)?
Answer: 0.237

Question: What about the relative viability (H3255; first compound 0.8 µM) of the same molecule?
Answer: 0.191

Question: What about the relative viability (H3255; first compound 2.53 µM) of the same molecule?
Answer: 0.317

Question: What about the relative viability (H3255; first compound 8 µM) of the same molecule?
Answer: 0.227

Question: What about the relative viability (LOU-NH91; first compound 0.253 µM) of the same molecule?
Answer: 0.771

Question: And the relative viability (LOU-NH91; first compound 0.8 µM)?
Answer: 0.675

Question: And the relative viability (LOU-NH91; first compound 2.53 µM)?
Answer: 0.758

Question: And the relative viability (LOU-NH91; first compound 8 µM)?
Answer: 0.579

Question: And the relative viability (NCI-H1650; first compound 0.253 µM)?
Answer: 0.75

Question: And the relative viability (NCI-H1650; first compound 0.8 µM)?
Answer: 0.485

Question: What about the relative viability (NCI-H1650; first compound 2.53 µM) of the same molecule?
Answer: 0.835

Question: And the relative viability (NCI-H1650; first compound 8 µM)?
Answer: 0.731

Question: And the relative viability (NCI-H838; first compound 0.253 µM)?
Answer: 0.807

Question: And the relative viability (NCI-H838; first compound 0.8 µM)?
Answer: 0.956

Question: What about the relative viability (NCI-H838; first compound 2.53 µM) of the same molecule?
Answer: 1.34

Question: What about the relative viability (NCI-H838; first compound 8 µM) of the same molecule?
Answer: 0.816

Question: What about the relative viability (NCI-H2087; first compound 0.253 µM) of the same molecule?
Answer: 1.01

Question: And the relative viability (NCI-H2087; first compound 0.8 µM)?
Answer: 0.78

Question: What about the relative viability (NCI-H2087; first compound 2.53 µM) of the same molecule?
Answer: 1.07

Question: What about the relative viability (NCI-H2087; first compound 8 µM) of the same molecule?
Answer: 1.09

Question: And the relative viability (NCI-H1651; first compound 0.253 µM)?
Answer: 0.825

Question: What about the relative viability (NCI-H1651; first compound 0.8 µM) of the same molecule?
Answer: 0.867

Question: What about the relative viability (NCI-H1651; first compound 2.53 µM) of the same molecule?
Answer: 1.25

Question: And the relative viability (NCI-H1651; first compound 8 µM)?
Answer: 0.88

Question: What about the relative viability (EPLC-272H; first compound 0.253 µM) of the same molecule?
Answer: 0.97

Question: And the relative viability (EPLC-272H; first compound 2.53 µM)?
Answer: 0.976

Question: What about the relative viability (EPLC-272H; first compound 8 µM) of the same molecule?
Answer: 0.648

Question: And the relative viability (SW 1573; first compound 0.253 µM)?
Answer: 1.12

Question: And the relative viability (SW 1573; first compound 0.8 µM)?
Answer: 1.08

Question: And the relative viability (SW 1573; first compound 2.53 µM)?
Answer: 1.12

Question: What about the relative viability (SW 1573; first compound 8 µM) of the same molecule?
Answer: 0.992

Question: And the relative viability (NCI-H1975; first compound 0.253 µM)?
Answer: 0.897

Question: What about the relative viability (NCI-H1975; first compound 0.8 µM) of the same molecule?
Answer: 0.799

Question: And the relative viability (NCI-H1975; first compound 2.53 µM)?
Answer: 1.07

Question: What about the relative viability (NCI-H1975; first compound 8 µM) of the same molecule?
Answer: 0.909

Question: And the relative viability (NCI-H2085; first compound 0.253 µM)?
Answer: 0.731

Question: What about the relative viability (NCI-H2085; first compound 0.8 µM) of the same molecule?
Answer: 0.538

Question: And the relative viability (NCI-H2085; first compound 2.53 µM)?
Answer: 0.912

Question: And the relative viability (NCI-H2085; first compound 8 µM)?
Answer: 0.477

Question: What about the relative viability (NCI-H727; first compound 0.253 µM) of the same molecule?
Answer: 0.685

Question: And the relative viability (NCI-H727; first compound 2.53 µM)?
Answer: 1

Question: What about the relative viability (NCI-H727; first compound 8 µM) of the same molecule?
Answer: 0.781

Question: And the relative viability (LC-2-ad; first compound 0.253 µM)?
Answer: 0.941

Question: What about the relative viability (LC-2-ad; first compound 0.8 µM) of the same molecule?
Answer: 0.96

Question: What about the relative viability (LC-2-ad; first compound 2.53 µM) of the same molecule?
Answer: 1.05

Question: And the relative viability (LC-2-ad; first compound 8 µM)?
Answer: 1

Question: What about the relative viability (NCI-H2228; first compound 0.253 µM) of the same molecule?
Answer: 0.997

Question: What about the relative viability (NCI-H2228; first compound 0.8 µM) of the same molecule?
Answer: 0.864

Question: What about the relative viability (NCI-H2228; first compound 2.53 µM) of the same molecule?
Answer: 1.59

Question: And the relative viability (NCI-H2228; first compound 8 µM)?
Answer: 0.958

Question: And the relative viability (NCI-H2170; first compound 0.253 µM)?
Answer: 0.26

Question: What about the relative viability (NCI-H2170; first compound 0.8 µM) of the same molecule?
Answer: 0.293

Question: What about the relative viability (NCI-H2170; first compound 2.53 µM) of the same molecule?
Answer: 0.296

Question: And the relative viability (NCI-H2170; first compound 8 µM)?
Answer: 0.247

Question: And the relative viability (UMC-11; first compound 0.253 µM)?
Answer: 1.1

Question: What about the relative viability (UMC-11; first compound 0.8 µM) of the same molecule?
Answer: 0.803

Question: What about the relative viability (UMC-11; first compound 2.53 µM) of the same molecule?
Answer: 1.04

Question: And the relative viability (UMC-11; first compound 8 µM)?
Answer: 0.791

Question: What about the relative viability (PC-3 [JPC-3]; first compound 0.253 µM) of the same molecule?
Answer: 0.515

Question: What about the relative viability (PC-3 [JPC-3]; first compound 0.8 µM) of the same molecule?
Answer: 0.377

Question: And the relative viability (PC-3 [JPC-3]; first compound 2.53 µM)?
Answer: 0.496

Question: And the relative viability (PC-3 [JPC-3]; first compound 8 µM)?
Answer: 0.389

Question: And the relative viability (NCI-H23; first compound 0.253 µM)?
Answer: 1.05

Question: And the relative viability (NCI-H23; first compound 0.8 µM)?
Answer: 1

Question: What about the relative viability (NCI-H23; first compound 2.53 µM) of the same molecule?
Answer: 1.16

Question: And the relative viability (NCI-H23; first compound 8 µM)?
Answer: 0.781
